# Assay results taken from ChEMBL document CHEMBL1135141, “Inhibition of glutathione S-transferase in rat hepatocytes by a glycine-tetrazole modified S-alkyl-GSH analogue” (Bioorg Med Chem Lett, 2002).
# What was measured:
# Settings in all cases: concentration not given here
# [1] = target: Glutathione S-transferase alpha-3 (Rattus norvegicus) (UniProt P04904); test: Tested for percent inhibition of isolated rat liver cytosolic Glutathione S-transferase 2-2 isoenzyme
# [2] = target: Glutathione S-transferase alpha-1 (Rattus norvegicus) (UniProt P00502); test: Tested for percent inhibition of isolated rat liver cytosolic Glutathione S-transferase 1-1 isoenzyme
# Sequence of Glutathione S-transferase alpha-1 (Rattus norvegicus) (P00502 whole entry, looked up): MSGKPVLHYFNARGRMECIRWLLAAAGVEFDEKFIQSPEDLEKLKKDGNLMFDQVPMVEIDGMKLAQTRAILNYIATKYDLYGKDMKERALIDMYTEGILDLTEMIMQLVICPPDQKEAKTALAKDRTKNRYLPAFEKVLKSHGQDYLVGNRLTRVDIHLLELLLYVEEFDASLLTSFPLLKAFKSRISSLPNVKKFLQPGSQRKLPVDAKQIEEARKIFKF
# [3] = target: T1, Glutathione S-transferase Mu 1 (Rattus norvegicus) (UniProt P04905); test: Tested for percent inhibition of isolated rat liver cytosolic Glutathione S-transferase 3-3 isoenzyme
# T1 sequence (whole entry): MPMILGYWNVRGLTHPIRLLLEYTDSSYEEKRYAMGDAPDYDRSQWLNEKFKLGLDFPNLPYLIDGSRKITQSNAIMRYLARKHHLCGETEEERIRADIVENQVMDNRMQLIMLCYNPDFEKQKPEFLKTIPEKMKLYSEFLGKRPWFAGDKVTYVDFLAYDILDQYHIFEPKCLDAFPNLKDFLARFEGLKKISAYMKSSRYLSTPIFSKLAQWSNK
# [4] = target: T2, Glutathione S-transferase Mu 2 (Rattus norvegicus) (UniProt P08010); test: Tested for percent inhibition of isolated rat liver cytosolic Glutathione S-transferase 4-4 isoenzyme
# T2 sequence (whole entry): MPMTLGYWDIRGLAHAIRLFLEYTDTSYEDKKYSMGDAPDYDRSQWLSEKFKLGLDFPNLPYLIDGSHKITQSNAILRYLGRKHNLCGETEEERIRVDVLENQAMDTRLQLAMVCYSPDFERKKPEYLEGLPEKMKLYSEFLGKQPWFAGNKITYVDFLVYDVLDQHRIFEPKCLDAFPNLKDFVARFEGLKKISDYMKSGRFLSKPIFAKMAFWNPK
# Sequence of Glutathione S-transferase alpha-3 (Rattus norvegicus) (P04904 whole entry, looked up): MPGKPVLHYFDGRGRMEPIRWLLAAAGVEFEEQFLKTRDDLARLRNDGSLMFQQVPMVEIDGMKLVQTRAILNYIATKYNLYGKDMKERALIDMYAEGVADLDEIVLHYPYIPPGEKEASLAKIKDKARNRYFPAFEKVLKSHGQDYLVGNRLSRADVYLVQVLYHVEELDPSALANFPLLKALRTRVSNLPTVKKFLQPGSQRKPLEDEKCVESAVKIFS
inhibition [1] [%],inhibition [2] [%],inhibition [3] [%],inhibition [4] [%],Compound
53,16,65,59,CCCCCC(C)SCC(NC(=O)CCC(N)C(=O)O)C(=O)NCc1nn[nH]n1 (stereo not drawn)
98,53,95,91,"CCCCCC(C)SCC(NC(=O)CCC(N)C(=O)O)C(=O)NCC(=O)O (single isomer, unassigned)"
